The text below walks through data of US20210206817A1, “Metabolically Stable Apelin Analogs in the Treatment of Disease Mediated by the Apelin Receptor” (priority 2014, published 2021).

For assay [1], the target named is T1, rat apelin receptor-EGFP (Rattus norvegicus, UniProt Q9JHG3).
T1 construct: expressed in transfected cells
T1 sequence (Q9JHG3 1-377): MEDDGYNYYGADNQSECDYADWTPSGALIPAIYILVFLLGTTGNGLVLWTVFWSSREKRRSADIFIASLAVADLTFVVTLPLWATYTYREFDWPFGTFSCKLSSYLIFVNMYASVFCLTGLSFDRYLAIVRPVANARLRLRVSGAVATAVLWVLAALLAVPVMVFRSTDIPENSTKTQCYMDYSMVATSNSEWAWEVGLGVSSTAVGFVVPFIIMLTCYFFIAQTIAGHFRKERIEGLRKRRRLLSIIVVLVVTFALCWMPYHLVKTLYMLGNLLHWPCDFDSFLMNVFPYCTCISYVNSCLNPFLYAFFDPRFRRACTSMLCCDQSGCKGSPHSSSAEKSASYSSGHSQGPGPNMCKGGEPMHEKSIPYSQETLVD
As to the kind of experiment: [125I]pE13F radioligand binding on CHO membrane preparations. The procedure:
Crude membrane preparation from CHO stably expressing the wild-type rat apelin receptor-EGFP, were prepared as previously described (39). […] The reaction was stopped by adding ice-cold binding buffer and filtered through glass microfiber filters (Whatman GF/C filters). Radioactivity was counted in Wizard 1470 Wallac gamma counter (Perkin Elmer, Turku, Finland).

Assay [2] has as its target T1, rat apelin receptor-EGFP. As to the kind of experiment: Inhibition of forskolin-induced cAMP production (HTRF). The class given is cell-based.
Method: cAMP was quantified using the cAMP dynamic 2 assay kit (Cisbio Bioassays, Codolet, France) based on homogeneous time-resolved fluorescence (HTRF) technology. The stimulation was done in the stimulation buffer (HBSS, 5 mM Hepes, 0.1% BSA stabilizer, 1 mM IBMX, pH 7.4). Briefly, 2,000/well CHO cells stably expressing the rat apelin receptor-EGFP were added into 384-well plate and stimulated with 10^−6 M forskolin (FSK) and increasing concentrations (10^−14 to 10^−4 M) of apelins or its analogs for 30 min at room temperature. Cells were then lyzed, and cAMP levels were determined following manufacturer instructions.
The target of assay [3] is T1, rat apelin receptor-EGFP. In words: Apelin receptor-EGFP internalization, confocal microscopy. The class given is cell-based. As to conditions: 1 μM, 20 min. The procedure:
The internalization assay was performed as described previously with CHO cells stably expressing the rat apelin receptor-EGFP (43). […] Cells were then mounted in Aquapolymount (Polysciences, Warrington, Pa., USA) for confocal microscopic analysis (Sec (42) for details).

In assay [4] the test system is rat aortic rings precontracted by noradrenaline (NA). As to the kind of experiment: Isometric tension of aortic rings precontracted by noradrenaline. The following applies: precontraction 3×10^−6 M NA. The procedure:
The experiments were performed in rat aortic rings as previously described (39). […] The aortas were cleaned of excess connective tissue and fat and cut into rings of approximately 3-4 mm in length. Special care was taken to avoid damaging the luminal surface of the endothelium. […] One end of the aortic ring was connected to a tissue holder and the other to an isometric force transducer (EMKA Technologies, Paris, France). […] During equilibration period, the rings were washed every 30 min. Then, a first relaxation to acetylcholine (Ach, 10^−4 mol/L) was implemented to check the integrity or the absence of the endothelium in rings precontracted with NA (3×10^−8 mol/L). After rinsing with PSS to baseline tension, rings were equilibrated for 90 min. […] Each concentration of the drug was added at the maximal effect of the precedent concentration. The concentration-response curves were continuously recorded on a PC by means of IOX v 2.4 (EMKA Technologies, Paris) for further analysis (Datanalyst v2.1, EMKA Technologies, Paris).

The mark [5] stands for this setting: Table 3, read-out: Ki nM ± SEM (15.11.2013).
[6] abbreviates: Table 3, read-out: IC50 cAMP inhibition.
[7] abbreviates: competition with [125I]pE13F, CHO membranes, read-out: Ki for the apelin receptor (affinity).
The mark [8] stands for this setting: 10^−6 M forskolin, read-out: IC50 inhibition of forskolin-induced cAMP production.

Like-named read-outs stand apart in the source and are kept apart here. Where a SMILES comes first, the peptide text is derived from it.

In the case of `CCCCCCCCCCCCCCCC(=O)NCCCC[C@H](N)C(=O)N[C@@H](CCCCN)C(=O)N[C@@H](Cc1ccccc1)C(=O)N[C@@H](CCCNC(=N)N)C(=O)N[C@@H](CCCNC(=N)N)C(=O)N[C@@H](CCC(N)=O)C(=O)N[C@@H](CCCNC(=N)N)C(=O)N1CCC[C@H]1C(=O)N[C@@H](CCCNC(=N)N)C(=O)N[C@@H](CC(C)C)C(=O)N[C@@H](CO)C(=O)N[C@@H](Cc1c[nH]cn1)C(=O)N[C@@H](CCCCN)C(=O)NCC(=O)N1CCC[C@H]1C(=O)N[C@@H](CCSC)C(=O)N1CCC[C@H]1C(=O)N[C@@H](Cc1ccccc1)C(=O)O` [JFM V-0210/2], the Ki in assay [1] (setting [5]) came to 1.33 ± 0.15 nM. In assay [2] (setting [6]), the IC50 was determined as 1.4 ± 0.5 nM.

For `CCCC[C@H](NC(=O)[C@@H]1CCCN1C(=O)[C@@H](C)NC(=O)[C@H](CCCCN)NC(=O)C(C)(C)NC(=O)[C@H](CO)NC(=O)[C@@H](CC(C)C)NC(=O)[C@H](CCCNC(=N)N)NC(=O)[C@@H]1CCCN1C(=O)[C@H](CCCNC(=N)N)NC(=O)[C@@H](CCC(N)=O)NC(=O)[C@H](CCCNC(=N)N)NC(=O)[C@H](CCCNC(=N)N)NC(=O)[C@H](Cc1ccccc1)NC(=O)[C@H](CCCCN)NC(C)=O)C(=O)N1CCC[C@H]1C(=O)N[C@@H](Cc1ccc(Br)cc1)C(=O)O` [P95, N-Acetyl-Lys-Phe-Arg-Arg-D-Gln-Arg-Pro-Arg-D-Leu-Ser-Aib-Lys-D-Ala-Pro-Nle-Pro-(4-Br)Phe] (HELM PEPTIDE1{[ac].K.F.R.R.[dQ].R.P.R.[dL].S.[Aib].K.[dA].P.[Nle].P.[O=C(O)[C@H](Cc1ccc(Br)cc1)N[*:1]]}$$$$V2.0; C-terminus assumed), the “affinity improved as compared to K17F by a factor” value in assay [1] was determined as 10. Also, the IC50 in assay [1] (Table 1) was determined as 0.03 ± 0.02 nM; in assay [2] (Table 1, read-out: cAMP production IC50), 0.34 ± 0.36 nM. The Ki in assay [1] (setting [7]) was determined as 0.03 nM.

For `CSCC[C@H](NC(=O)[C@@H]1CCCN1C(=O)[C@@H](C)NC(=O)[C@H](CCCCN)NC(=O)[C@H](Cc1c[nH]cn1)NC(=O)[C@H](CO)NC(=O)[C@H](CC(C)C)NC(=O)[C@H](CCCNC(=N)N)NC(=O)[C@@H]1CCCN1C(=O)[C@H](CCCNC(=N)N)NC(=O)[C@@H]1CCC(=O)N1)C(=O)N1CCC[C@H]1C(=O)N[C@@H](Cc1ccccc1)C(=O)O` [pE13F(D-Ala^9)] (HELM PEPTIDE1{[Glp].R.P.R.L.S.H.K.[dA].P.M.P.F}$$$$V2.0; C-terminus assumed), in assay [1] (setting [7]), the Ki amounted to 4.3 ± 1.8 nM. The IC50 in assay [2] (setting [8]) amounted to 43 ± 12 nM. Moreover, the “induction of apelin receptor internalization” value (shortened to “induction”) in assay [3] is “potent inducers of apelin receptor internalization”.

For `CSCC[C@H](NC(=O)[C@@H]1CCCN1C(=O)CNC(=O)[C@H](CCCCN)NC(=O)[C@H](Cc1c[nH]cn1)NC(=O)[C@H](CO)NC(=O)[C@H](CC(C)C)NC(=O)[C@H](CCCNC(=N)N)NC(=O)[C@@H]1CCCN1C(=O)[C@H](CCCNC(=N)N)NC(=O)[C@@H]1CCC(=O)N1)C(=O)N1CCC[C@H]1C(=O)N[C@@H](Cc1ccc(Br)cc1)C(=O)O` [pE13(4Br-Phe^13)], the Ki in assay [1] (setting [7]) stood at 0.06 ± 0.02 nM. The IC50 in assay [2] (setting [8]) was 0.1 ± 0.05 nM. In addition, in assay [3], the “induction” value was “potent inducers of apelin receptor internalization”.

On to `CSCC[C@H](NC(=O)[C@@H]1CCCN1C(=O)CNC(=O)[C@H](CCCCN)NC(=O)[C@H](Cc1c[nH]cn1)NC(=O)[C@H](CO)NC(=O)[C@H](CC(C)C)NC(=O)[C@H](CCCNC(=N)N)NC(=O)[C@@H]1CCCN1C(=O)[C@H](CCCNC(=N)N)NC(=O)[C@@H]1CCC(=O)N1)C(=O)N1CCC[C@H]1C(=O)N[C@@H](Cc1ccccc1)C(=O)O` [pE13F, reference compound], for which, in assay [4], the maximal relaxant effect was found to be 62±6% and the “potency (pD2) of relaxation” value stood at 8.00±0.59.

For the compound `CSCC[C@H](NC(=O)[C@@H]1CCCN1C(=O)CNC(=O)[C@H](CCCCN)NC(=O)[C@H](Cc1c[nH]cn1)NC(=O)[C@H](CO)NC(=O)[C@H](CC(C)C)NC(=O)[C@H](CCCNC(=N)N)NC(=O)[C@@H]1CCCN1C(=O)[C@H](CCCNC(=N)N)NC(=O)[C@H](CCC(N)=O)NC(=O)[C@H](CCCNC(=N)N)NC(=O)[C@H](CCCNC(=N)N)NC(=O)[C@H](Cc1ccccc1)NC(=O)[C@@H](N)CCCCNC(=O)CCC(F)(F)C(F)(F)C(F)(F)C(F)(F)C(F)(F)C(F)(F)C(F)(F)C(F)(F)F)C(=O)N1CCC[C@H]1C(=O)N[C@@H](Cc1ccccc1)C(=O)O` [JFM V-0220B], the Ki in assay [1] (setting [5]) is 0.16 ± 0.01 nM; in assay [1] (setting [7]) it was 0.2 nM. Also, in assay [2] (setting [6]), the IC50 is 1 ± 0.4 nM.

Consider `CSCC[C@H](NC(=O)[C@@H]1CCCN1C(=O)CNC(=O)[C@H](CCCCN)NC(=O)[C@H](Cc1c[nH]cn1)NC(=O)[C@H](CO)NC(=O)[C@H](CC(C)C)NC(=O)[C@H](CCCNC(=N)N)NC(=O)[C@@H]1CCCN1C(=O)[C@H](CCCNC(=N)N)NC(=O)[C@H](CCC(N)=O)NC(=O)[C@H](CCCNC(=N)N)NC(=O)[C@H](CCCNC(=N)N)NC(=O)[C@H](Cc1ccccc1)NC(=O)[C@H](CCCCN)NC(=O)[C@@H](N)CCCCNC(=O)CCC(F)(F)C(F)(F)C(F)(F)C(F)(F)C(F)(F)C(F)(F)C(F)(F)C(F)(F)F)C(=O)N1CCC[C@H]1C(=O)N[C@@H](Cc1ccccc1)C(=O)O` [JFM V-0210/1], for which the Ki in assay [1] (setting [5]) stood at 0.18 ± 0.023 nM. Further, in assay [2] (setting [6]), the IC50 came out at 3.8 ± 1 nM.

In the case of `CSCC[C@H](NC(=O)[C@@H]1CCCN1C(=O)CNC(=O)[C@H](CCCCN)NC(=O)[C@H](Cc1c[nH]cn1)NC(=O)[C@H](CO)NC(=O)[C@H](CC(C)C)NC(=O)[C@H](CCCNC(=N)N)NC(=O)[C@@H]1CCCN1C(=O)[C@H](CCCNC(=N)N)NC(C)=O)C(=O)N1CCC[C@H]1C(=O)N[C@@H](Cc1ccccc1)C(=O)O` [Ac—R12F], the inhibition constant (Ki) in assay [1] (setting [7]) came out at 1.4 ± 0.7 nM. The IC50 in assay [2] (setting [8]) was found to be 2.4 ± 1.4 nM. Besides, the “induction” value in assay [3] is on record as “potent inducers of apelin receptor internalization”.

As for `CCCC[C@H](NC(=O)[C@@H]1CCCN1C(=O)CNC(=O)[C@H](CCCCN)NC(=O)[C@H](Cc1c[nH]cn1)NC(=O)[C@H](CO)NC(=O)[C@H](CC(C)C)NC(=O)[C@H](CCCNC(=N)N)NC(=O)[C@@H]1CCCN1C(=O)[C@H](CCCNC(=N)N)NC(=O)[C@@H]1CCC(=O)N1)C(=O)N1CCC[C@H]1C(=O)N[C@@H](Cc1ccccc1)C(=O)O` [pE13F(Nle^11)], the “induction” value in assay [3] is “potent inducers of apelin receptor internalization”.

Consider `CCCCCCCCCCCCCCCC(=O)NCCCC[C@H](N)C(=O)N[C@@H](Cc1ccccc1)C(=O)N[C@@H](CCCNC(=N)N)C(=O)N[C@@H](CCCNC(=N)N)C(=O)N[C@@H](CCC(N)=O)C(=O)N[C@@H](CCCNC(=N)N)C(=O)N1CCC[C@H]1C(=O)N[C@@H](CCCNC(=N)N)C(=O)N[C@@H](CC(C)C)C(=O)N[C@@H](CO)C(=O)N[C@@H](Cc1c[nH]cn1)C(=O)N[C@@H](CCCCN)C(=O)NCC(=O)N1CCC[C@H]1C(=O)N[C@@H](CCSC)C(=O)N1CCC[C@H]1C(=O)N[C@@H](Cc1ccccc1)C(=O)O` [JFM V-0220A], for which, in assay [1] (setting [5]), the Ki was 1.43 ± 0.74 nM. The IC50 in assay [2] (setting [6]) stood at 2 ± 0.75 nM.

Turning to `CSCC[C@H](NC(=O)[C@@H]1CCCN1C(=O)CNC(=O)[C@H](CCCCN)NC(=O)C(C)(C)NC(=O)[C@H](CO)NC(=O)[C@H](CC(C)C)NC(=O)[C@H](CCCNC(=N)N)NC(=O)[C@@H]1CCCN1C(=O)[C@H](CCCNC(=N)N)NC(=O)[C@@H]1CCC(=O)N1)C(=O)N1CCC[C@H]1C(=O)N[C@@H](Cc1ccccc1)C(=O)O` [pE13F(Aib^7)] (HELM PEPTIDE1{[Glp].R.P.R.L.S.[Aib].K.G.P.M.P.F}$$$$V2.0; C-terminus assumed), the Ki in assay [1] (setting [7]) worked out at 2.6 ± 2.3 nM. Besides, the IC50 in assay [2] (setting [8]) came to 1.2 ± 0.6 nM. The “induction” value in assay [3] was “potent inducers of apelin receptor internalization”.
